Measurements from patent US20220265762A1, “COMPOSITION, COMPRISING TMEM176B OR AN EXPRESSION OR ACTIVITY REGULATOR THEREOF AS AN ACTIVE INGREDIENT, FOR PREVENTION OR TREATMENT OF DEGENERATIVE BRAIN DISEASE” (AMYLOID SOLUTION INC., priority 2019, published 2022).

Key:
astrocyte [1] = assay: Phagocytic activity of astrocyte on FAM-labeled amyloid-beta oligomer after TMEM176B inhibitor treatment; type: cell-based; conditions: inhibitor at 0, 3.703, 11.11, 33.33, 100 μM, FIG. 1
Protocol: In detail, BAYK8644 (by Merck) was used as a TMEM176B inhibitor, a method of confirming phagocytic activity of an astrocyte (by Abm) after treatment with the inhibitor was performed as follows. The astrocyte was cultured in a 96-well black cell culture plate (by SPL) using a PriGrow IV medium containing 10% FBS (by GIBCO), penicillin/streptomycin (by Thermo), human EGF 10 ng/mL (by Abm), and L-glutamine (by Abm), and incubation thereof was started at a density of 50,000 cells per well. Here, the TMEM176B inhibitor was treated at concentrations of 0 μM, 3.703 μM, 11.11 μM, 33.33 μM, and 100 μM, and the then the cells were stabilized by incubation at 37° C. in a 5% CO2 incubator for 18 to 24 hours. Fluorescent FAM-labeled amyloid-beta was dissolved in cold PBS (by Anaspec) at a concentration of 5 μM, blocked from light, and stored in a refrigerator at 4° C. for 24 hours to prepare amyloid-beta in oligomers. […] After 1 minute, trypan blue was removed by suction, and the phagocytized oligomeric amyloid-beta was measured at an excitation wavelength of 485 nm/emission wavelength of 535 nm using a microplate reader capable of measuring fluorescence. […] After the incubation was completed, a washing process was performed thereon once with PBS, and the stained nuclei were measured at an excitation wavelength of 360 nm/emission wavelength of 465 nm.

astrocyte [2] = assay: Phagocytic activity of astrocyte with overexpressed TMEM176B on FAM-labeled amyloid-beta oligomer; type: cell-based; conditions: virus-inoculated astrocytes treated with inhibitor at 0, 10, 50 μM; FIG. 3
Protocol: A TMEM176B-infected astrocyte and a normal astrocyte were separately cultured into wells of a 96-well black cell culture plate (by SPL) at a density of 50,000 cells per well, the plate using PriGrow IV medium containing 10% FBS (by GIBCO), penicillin/streptomycin (by Thermo), 10 ng/mL of human EGF (by Abm), and L-glutamine (by Abm). Here, only the astrocytes inoculated with the TMEM176B-adeno-associated virus were treated with the TMEM176B inhibitor at concentrations of 0 μM, 10 μM, and 50 μM, and then stabilized by incubation at 37° C. in a 5% CO2 incubator for 18 to 24 hours. FAM-labeled amyloid-beta (by Anaspec) was dissolved in cold PBS at a concentration of 5 μM, blocked from light, and stored in a refrigerator at 4° C. for 24 hours to prepare an oligomer. […] After 1 minute, trypan blue was removed, and the phagocytized oligomeric amyloid-beta was measured at an excitation wavelength of 485 nm/emission wavelength of 535 nm using a microplate reader capable of measuring fluorescence. […] After the incubation was completed, a washing process was performed thereon once with PBS, and the stained nuclei were measured at an excitation wavelength of 360 nm/emission wavelength of 465 nm using a microplate reader capable of measuring fluorescence.

COC(=O)C1=C(C)NC(C)=C([N+](=O)[O-])C1c1ccccc1C(F)(F)F (centres unmarked) [TMEM176B inhibitor, BAYK8644]
phagocytosis function on the amyloid-beta oligomer (astrocyte [1]): decreased the phagocytosis function
phagocytosis of oligomeric amyloid-beta (astrocyte [2]): decreased in a concentration-dependent manner
